Source: US20260216374A1, “POU5F1B INHIBITORS” (ECOLE POLYTECHNIQUE FEDERALE DE LAUSANNE (EPFL), priority 2023, published 2026)
Entries after “also recorded” stand apart in the source; their conditions may differ. Residues, ends and D or L forms follow the SMILES beside them. *: point of attachment. Cbz = O=C(OCc1ccccc1)*

Assays:
Format in all cases: cell-based, human
POU5F1B [1] = assay: Radiolabelling pulse-chase experiment to determine POU5F1B half-life; conditions: POU5F1B-overexpressing SW480 cells; ROCK inhibitors 20 μM 24 hours; MG132 10 μM 3 hours
Experimental: Radiolabelling experiment to determine POU5F1B half-life. POU5F1B-overexpressing SW480 cells treated for 24 hours with capivasertib (20 μM), oxa-06 (20 μM) and Y-27632 (20 μM) ROCK inhibitors, and 3 hours with MG132 (10 μM) proteasome inhibitor, were washed with methionine/cysteine-free medium, incubated for a 20-min pulse at 37° C. with 50 μCi/ml [35S]methionine/cysteine (Hartman Analytics), washed, and further incubated for different times at 37° C. in complete medium with a 10-fold excess of nonradioactive methionine and cysteine. POU5F1B protein was HA-immunoprecipitated, eluted and loaded in SDS-PAGE gels, and autoradiographies were quantified using the Typhoon Imager (Image QuantTool, GE healthcare).

POU5F1B-DCK = assay: Dose response assay, BVdU survival of POU5F1B-DCK-overexpressing SW480 cells (POU5F1B-DCK degradation); conditions: 0.39-25 μM compound, 500 μM BVdU, reading at 96 h and 120 h
Experimental: Dose response assays. POU5F1B-DCK-, DCK-overexpressing, and wild type SW480 cells were seeded in 96-well plates at a cell density of 2,000 cells/well in 100 μl of media. At the same time of cell seeding, 100 μM Capivasertib, OXA-06 and Laurocapram dissolved in DMSO were diluted in medium and 20 μl were dispensed in the 96-wells to achieve final concentrations of 0.39, 0.78, 1.56, 3.12, 6.25, 12.5 and 25 μM, keeping the final concentration of DMSO at 0.2% in each well. The next day, 500 μM BVdU (Brivudine H27853, Thermo Fisher) was added in all wells except for non-treated ones. Plate reading was done at 96 h and 120 h post BvDU treatment by measuring fluorescence after incubating the cells with PrestoBlue™ (A13262, Invitrogen) for 30 min.

POU5F1B [2] = assay: Immunoprecipitation of HA-tagged POU5F1B followed by Western blot with phosphoserine-specific antibody; conditions: HA-tagged POU5F1B overexpressed in SW480 cells
Experimental: Immunoprecipitation. Cells were washed three times PBS, lysed 30 min at 4° C. in the following Buffer (0.5% Nonidet P-40, 500 mM Tris pH 7.4, 20 mM EDTA, 10 mM NaF, 2 mM benzamidin and protease inhibitor cocktail (Roche)), and centrifuged 3 min at 5000 rpm. Supernatants were subjected to preclearing with mouse IgG-agarose beads (Sigma A0919) prior immunoprecipitation reaction. Supernatants were incubated overnight with anti HA-agarose beads (Sigma A2095). Similar elution volumes and protein quantities, for the IPs and the inputs, respectively, were submitted to SDS-PAGE and analyzed by immunoblotting using anti-ubiquitin […] (Santa Cruz Biotechnology sc-8017, 1:1,000), HRP-conjugated anti-HA (clone 3F10 Roche 12013819001, 1:1,000), anti-phosphoserine ([…], Sigma) and HRP-conjugated anti-mouse antibody.

POU5F1B [3] = assay: Immunofluorescence of HA-tagged POU5F1B localization in SW480 cells; conditions: TAK-243 at 1 μM for 5 hours
Experimental: Immunofluorescence. Cell lines were plated on glass coverslips into 24-well plates and cultured for 3 days up to 70% confluence in 500 ng ml^−1 doxycycline-containing medium. When needed, cells were treated with TAK-243, inhibitor of the ubiquitin activating enzyme, at 1 μM for 5 hours. Growth medium was refreshed (1 ml) prior a 15 min fixation with 1 ml 8% paraformaldehyde (PFA) added dropwise. Cells were washed three times with PBS, permeabilized with 0.1% saponin PBS for 20 min, and blocked with 1% BSA 0.1% saponin PBS for 30 min before incubation with anti-HA (bioLegend, Covance catalog #MMS-101P, 1:1,000) antibody in 1% BSA 0.1% saponin PBS 2 h at room temperature (RT) under agitation. Samples were washed three times with PBS and incubated with Alexa 647-conjugated (A647) anti-mouse antibody (1:1,000) in 1% BSA 0.1% saponin PBS for 40 min at RT. Three final washes were performed before mounting the slides in Vectashield with DAPI (Vector Laboratories). Images were acquired on a ZEISS LSM 700 confocal microscopy and analyzed with Fiji software.

SMILES: CC(C)C[C@@H](C=O)NC(=O)[C@H](CC(C)C)NC(=O)[C@H](CC(C)C)NC(=O)OCc1ccccc1 [MG132] (Cbz-Leu-Leu-Leu-aldehyde)
- half-life of POU5F1B (pulse-chase) (POU5F1B [1]): stabilized

SMILES: Fc1ccccc1CNCc1ccc(-c2ccnc3[nH]ccc23)cc1 [OXA-06]
- POU5F1B(-DCK) degradation, read as cell survival after BVdU treatment (POU5F1B-DCK): degraded
- wild type POU5F1B phosphoserine signal (POU5F1B [2]): decreases
- half-life of POU5F1B (pulse-chase) (POU5F1B [1]): reduced

SMILES: NS(=O)(=O)OC[C@H]1C[C@@H](Nc2ccnc3cc(-c4cccc(SC(F)(F)F)c4)nn23)[C@H](O)[C@@H]1O [TAK-243]
- POU5F1B subcellular localization (POU5F1B [3]): triggers the re-localization of POU5F1B to the nucleus; also recorded: re-localization from the cytoplasm to the nucleus

SMILES: C[C@@H](N)[C@H]1CC[C@H](C(=O)Nc2ccncc2)CC1 [Y-27632]
- wild type POU5F1B phosphoserine signal (POU5F1B [2]): decreases
- half-life of POU5F1B (pulse-chase) (POU5F1B [1]): reduced

SMILES: NC1(C(=O)N[C@@H](CCO)c2ccc(Cl)cc2)CCN(c2nc[nH]c3nccc2-3)CC1 [capivasertib]
- POU5F1B(-DCK) degradation, read as cell survival after BVdU treatment (POU5F1B-DCK): degraded
- wild type POU5F1B phosphoserine signal (POU5F1B [2]): decreases
- half-life of POU5F1B (pulse-chase) (POU5F1B [1]): reduced

SMILES: CCCCCCCCCCCCN1CCCCCC1=O [laurocapram]
- POU5F1B(-DCK) degradation, read as cell survival after BVdU treatment (POU5F1B-DCK): degraded
